Six molecules from US20240252463A1, “METHODS OF TREATING FIBROTIC PATHOLOGIES” (Mayo Foundation for Medical Education and Research, priority 2018, published 2024) can be followed below.

Where a name gives a salt, the structure may show the parent alone.

The subject of the first experiment is YAP/TAZ. The experiment can be described thus: YAP/TAZ nuclear localization (immunofluorescence, automated imaging) in IPF patient-derived lung fibroblasts. In kind it is cell-based, human. The note with it: patient sample IPF-1; 10 μM, treated 2 hours prior to fixation. As to the method:
27A. […] IPF patient-derived lung fibroblasts cells treated 2 hours prior to fixation with diverse dopaminergic agonists (10 μM). N=4 different patient samples. % nuclear localization of YAP/TAZ was determined using automated imaging software. Scale bar represents 100 μm. 27C. cAMP measured in IPF patient-derived fibroblasts treated for 20 minutes with DHX. N=3. 27E.
(§1) ImmunofluorescenceMicroscopy: Cells were plated into 96 well plates (Corning 3603) in their specific growth media and allowed to attach (8 hours). Media was then exchanged for the indicated conditions for each experiment. Cells were fixed in 3.7% formalin (Sigma-Aldrich), permeabilized in 0.25% Triton X-100 (Sigma-Aldrich) and then blocked with 1% BSA for 1 h. Cells or tissue sections were incubated overnight with mouse monoclonal antibody against αSMA (Sigma-Aldrich F3777), and/or a rabbit monoclonal antibody against YAP/TAZ (Cell Signaling D24E4) diluted 1:200 in PBS with 1% BSA. Cells were then washed and exposed to flourescence-conjugated secondary antibodies (Invitrogen) diluted 1:1000 and DAPI (Thermo Fisher Scientific). Images were taken with a Cytation5 (BioTek) microscope. For scoring αSMA positive cells (FIG. 3b), an observer blinded to the treatment conditions counted αSMA-positive cells using a visual threshold for bright fibrous staining; a minimum of 200 cells was counted for each condition. YAP/TAZ localization was quantified (FIG. 2, 6, 8) using Gen5 (Biotek) software. Images were taken at 4× magnification of both DAPI and YAP/TAZ staining. […] Quantification of double positive (YAP/TAZ and αSMA) cells from lung tissue sections (FIG. 4d) was performed similarly; however separate thresholds were established for both YAP/TAZ and αSMA. A minimum of 4000 cells was quantified for each mouse.
For `COc1ccc2c(c1O)-c1cc(O)cc3c1[C@@H](C2)N(C)CC3.Cl` [R(−)-2,11-dihydroxy-10-methoxyapomorphine], the “Nuclear localization (% of total cells) IPF-1” value was 85.18 % of total cells.

Turning to `CCCN1CCC[C@@H]2Cc3nc(N)ncc3C[C@H]21.Cl.Cl` [LY-163,502•2HCl], the “Nuclear localization (% of total cells) IPF-1” value is recorded as 73.37 % of total cells.

`NCCc1cccc(O)c1` [3-Hydroxyphenethylamine•HCl, 3-Hydroxyphenethylamine]: the “Nuclear localization (% of total cells) IPF-1” value is 48.96 % of total cells.

With `C=CCN1CCc2c(cc(O)c(O)c2Cl)C(c2ccccc2)C1` (racemic) [(±)-SKF-82958•HBr], the “Nuclear localization (% of total cells) IPF-1” value was 29.15 % of total cells.

For the molecule `Br.NC1CCc2cc(O)c(O)cc2C1` (stereo not drawn) [6,7-ADTN•HBr, 6,7-ADTN], the “Nuclear localization (% of total cells) IPF-1” value is given as 43.89 % of total cells.

Regarding `Br.CCCN1CCc2cc(O)cc3c2[C@H]1Cc1ccc(O)c(O)c1-3` [R(−)-2,10,11-Trihydroxy-N-propyl-noraporphine], the “Nuclear localization (% of total cells) IPF-1” value is listed as 32.87 % of total cells.

Staying with this experiment, now noted: patient sample IPF-2; 10 μM, treated 2 hours prior to fixation.
As for `COc1ccc2c(c1O)-c1cc(O)cc3c1[C@@H](C2)N(C)CC3.Cl` [R(−)-2,11-dihydroxy-10-methoxyapomorphine], the “Nuclear localization (% of total cells) IPF-2” value is 74.67 % of total cells.

For `CCCN1CCC[C@@H]2Cc3nc(N)ncc3C[C@H]21.Cl.Cl` [LY-163,502•2HCl], the “Nuclear localization (% of total cells) IPF-2” value was 60.97 % of total cells.

For `NCCc1cccc(O)c1` [3-Hydroxyphenethylamine•HCl, 3-Hydroxyphenethylamine], the “Nuclear localization (% of total cells) IPF-2” value is on record as 56.92 % of total cells.

For `C=CCN1CCc2c(cc(O)c(O)c2Cl)C(c2ccccc2)C1` (racemic) [(±)-SKF-82958•HBr], the “Nuclear localization (% of total cells) IPF-2” value is listed as 38 % of total cells.

Take `Br.NC1CCc2cc(O)c(O)cc2C1` (stereo not drawn) [6,7-ADTN•HBr, 6,7-ADTN]: the “Nuclear localization (% of total cells) IPF-2” value is reported as 44 % of total cells.

`Br.CCCN1CCc2cc(O)cc3c2[C@H]1Cc1ccc(O)c(O)c1-3` [R(−)-2,10,11-Trihydroxy-N-propyl-noraporphine]: the “Nuclear localization (% of total cells) IPF-2” value is 35.25 % of total cells.

The experiment is the same for the next values; noted with them: patient sample IPF-3; 10 μM, treated 2 hours prior to fixation.
Turning to `COc1ccc2c(c1O)-c1cc(O)cc3c1[C@@H](C2)N(C)CC3.Cl` [R(−)-2,11-dihydroxy-10-methoxyapomorphine], the “Nuclear localization (% of total cells) IPF-3” value is listed as 80.73 % of total cells.

`CCCN1CCC[C@@H]2Cc3nc(N)ncc3C[C@H]21.Cl.Cl` [LY-163,502•2HCl]: the “Nuclear localization (% of total cells) IPF-3” value is listed as 59.43 % of total cells.

Regarding `NCCc1cccc(O)c1` [3-Hydroxyphenethylamine•HCl, 3-Hydroxyphenethylamine], the “Nuclear localization (% of total cells) IPF-3” value is listed as 69.25 % of total cells.

As for `C=CCN1CCc2c(cc(O)c(O)c2Cl)C(c2ccccc2)C1` (racemic) [(±)-SKF-82958•HBr], the “Nuclear localization (% of total cells) IPF-3” value is recorded as 38 % of total cells.

On to `Br.NC1CCc2cc(O)c(O)cc2C1` (stereo not drawn) [6,7-ADTN•HBr, 6,7-ADTN], for which the “Nuclear localization (% of total cells) IPF-3” value is recorded as 65.5 % of total cells.

As for `Br.CCCN1CCc2cc(O)cc3c2[C@H]1Cc1ccc(O)c(O)c1-3` [R(−)-2,10,11-Trihydroxy-N-propyl-noraporphine], the “Nuclear localization (% of total cells) IPF-3” value is given as 37.7 % of total cells.

The experiment is the same for the next values; noted with them: patient sample IPF-4; 10 μM, treated 2 hours prior to fixation.
Consider `COc1ccc2c(c1O)-c1cc(O)cc3c1[C@@H](C2)N(C)CC3.Cl` [R(−)-2,11-dihydroxy-10-methoxyapomorphine], for which the “Nuclear localization (% of total cells) IPF-4” value is on record as 80.45 % of total cells.

Take `CCCN1CCC[C@@H]2Cc3nc(N)ncc3C[C@H]21.Cl.Cl` [LY-163,502•2HCl]: the “Nuclear localization (% of total cells) IPF-4” value is listed as 66.49 % of total cells.

Regarding `NCCc1cccc(O)c1` [3-Hydroxyphenethylamine•HCl, 3-Hydroxyphenethylamine], the “Nuclear localization (% of total cells) IPF-4” value is listed as 58.37 % of total cells.

For `C=CCN1CCc2c(cc(O)c(O)c2Cl)C(c2ccccc2)C1` (racemic) [(±)-SKF-82958•HBr], the “Nuclear localization (% of total cells) IPF-4” value is 12.29 % of total cells.

As to `Br.NC1CCc2cc(O)c(O)cc2C1` (stereo not drawn) [6,7-ADTN•HBr, 6,7-ADTN], the “Nuclear localization (% of total cells) IPF-4” value is reported as 52.65 % of total cells.

Turning to `Br.CCCN1CCc2cc(O)cc3c2[C@H]1Cc1ccc(O)c(O)c1-3` [R(−)-2,10,11-Trihydroxy-N-propyl-noraporphine], the “Nuclear localization (% of total cells) IPF-4” value is recorded as 25.36 % of total cells.

For the next experiment, the system named is αSMA. The experiment in a line: αSMA intensity (fibroblast activation) in IPF patient-derived lung fibroblasts + TGFβ. In kind it is cell-based, human. The following applies: Homo sapiens, SMA; patient sample IPF-1; 1 μM + TGFβ, treated for 72 hours; read-out: αSMA intensity (% of DMSO control) IPF-1. Here is the method:
as §1
For the molecule `NCCc1cccc(O)c1` [3-Hydroxyphenethylamine•HCl, 3-Hydroxyphenethylamine], the activity at 1 µM is 88.6%.

With `C=CCN1CCc2c(cc(O)c(O)c2Cl)C(c2ccccc2)C1` (racemic) [(±)-SKF-82958•HBr], the activity at 1 µM came out at 11.8%.

The experiment is the same for the next values; noted with them: Homo sapiens, SMA; patient sample IPF-2; 1 μM + TGFβ, treated for 72 hours; read-out: αSMA intensity (% of DMSO control) IPF-2.
Consider `NCCc1cccc(O)c1` [3-Hydroxyphenethylamine•HCl, 3-Hydroxyphenethylamine], for which the activity at 1 µM is 96.7%.

Take `C=CCN1CCc2c(cc(O)c(O)c2Cl)C(c2ccccc2)C1` (racemic) [(±)-SKF-82958•HBr]: the activity at 1 µM amounted to 4.97%.

Still in this experiment, the particulars now being: Homo sapiens, SMA; patient sample IPF-3; 1 μM + TGFβ, treated for 72 hours; read-out: αSMA intensity (% of DMSO control) IPF-3.
With `NCCc1cccc(O)c1` [3-Hydroxyphenethylamine•HCl, 3-Hydroxyphenethylamine], the activity at 1 µM worked out at 82.6%.

Consider `C=CCN1CCc2c(cc(O)c(O)c2Cl)C(c2ccccc2)C1` (racemic) [(±)-SKF-82958•HBr], for which the activity at 1 µM was 2.43%.

Still in this experiment, the particulars now being: Homo sapiens, SMA; patient sample IPF-4; 1 μM + TGFβ, treated for 72 hours; read-out: αSMA intensity (% of DMSO control) IPF-4.
For `NCCc1cccc(O)c1` [3-Hydroxyphenethylamine•HCl, 3-Hydroxyphenethylamine], the activity at 1 µM was 99.8%.

In the case of `C=CCN1CCc2c(cc(O)c(O)c2Cl)C(c2ccccc2)C1` (racemic) [(±)-SKF-82958•HBr], the activity at 1 µM amounted to 9.33%.

Staying with this experiment, now noted: patient sample IPF-1; 1 μM + TGFβ, treated for 72 hours.
In the case of `COc1ccc2c(c1O)-c1cc(O)cc3c1[C@@H](C2)N(C)CC3.Cl` [R(−)-2,11-dihydroxy-10-methoxyapomorphine], the “αSMA intensity (% of DMSO control) IPF-1” value is 91.84 % of DMSO control.

Turning to `CCCN1CCC[C@@H]2Cc3nc(N)ncc3C[C@H]21.Cl.Cl` [LY-163,502•2HCl], the “αSMA intensity (% of DMSO control) IPF-1” value is 88.99 % of DMSO control.

In the case of `Br.NC1CCc2cc(O)c(O)cc2C1` (stereo not drawn) [6,7-ADTN•HBr, 6,7-ADTN], the “αSMA intensity (% of DMSO control) IPF-1” value is 37.14 % of DMSO control.

In the case of `Br.CCCN1CCc2cc(O)cc3c2[C@H]1Cc1ccc(O)c(O)c1-3` [R(−)-2,10,11-Trihydroxy-N-propyl-noraporphine], the “αSMA intensity (% of DMSO control) IPF-1” value is 4.895 % of DMSO control.

Staying with this experiment, now noted: patient sample IPF-2; 1 μM + TGFβ, treated for 72 hours.
Consider `COc1ccc2c(c1O)-c1cc(O)cc3c1[C@@H](C2)N(C)CC3.Cl` [R(−)-2,11-dihydroxy-10-methoxyapomorphine], for which the “αSMA intensity (% of DMSO control) IPF-2” value was 92.8 % of DMSO control.

In the case of `CCCN1CCC[C@@H]2Cc3nc(N)ncc3C[C@H]21.Cl.Cl` [LY-163,502•2HCl], the “αSMA intensity (% of DMSO control) IPF-2” value is recorded as 72.86 % of DMSO control.

For the molecule `Br.NC1CCc2cc(O)c(O)cc2C1` (stereo not drawn) [6,7-ADTN•HBr, 6,7-ADTN], the “αSMA intensity (% of DMSO control) IPF-2” value is 4.182 % of DMSO control.

`Br.CCCN1CCc2cc(O)cc3c2[C@H]1Cc1ccc(O)c(O)c1-3` [R(−)-2,10,11-Trihydroxy-N-propyl-noraporphine]: the “αSMA intensity (% of DMSO control) IPF-2” value is 8.436 % of DMSO control.

The same experiment, now with this note: patient sample IPF-3; 1 μM + TGFβ, treated for 72 hours.
`COc1ccc2c(c1O)-c1cc(O)cc3c1[C@@H](C2)N(C)CC3.Cl` [R(−)-2,11-dihydroxy-10-methoxyapomorphine]: the “αSMA intensity (% of DMSO control) IPF-3” value is 81.85 % of DMSO control.

For the molecule `CCCN1CCC[C@@H]2Cc3nc(N)ncc3C[C@H]21.Cl.Cl` [LY-163,502•2HCl], the “αSMA intensity (% of DMSO control) IPF-3” value is recorded as 75.3 % of DMSO control.

With `Br.NC1CCc2cc(O)c(O)cc2C1` (stereo not drawn) [6,7-ADTN•HBr, 6,7-ADTN], the “αSMA intensity (% of DMSO control) IPF-3” value is 9.909 % of DMSO control.

Regarding `Br.CCCN1CCc2cc(O)cc3c2[C@H]1Cc1ccc(O)c(O)c1-3` [R(−)-2,10,11-Trihydroxy-N-propyl-noraporphine], the “αSMA intensity (% of DMSO control) IPF-3” value is 2.988 % of DMSO control.

Staying with this experiment, now noted: patient sample IPF-4; 1 μM + TGFβ, treated for 72 hours.
Consider `COc1ccc2c(c1O)-c1cc(O)cc3c1[C@@H](C2)N(C)CC3.Cl` [R(−)-2,11-dihydroxy-10-methoxyapomorphine], for which the “αSMA intensity (% of DMSO control) IPF-4” value was 85.61 % of DMSO control.

Consider `CCCN1CCC[C@@H]2Cc3nc(N)ncc3C[C@H]21.Cl.Cl` [LY-163,502•2HCl], for which the “αSMA intensity (% of DMSO control) IPF-4” value is listed as 86.7894 % of DMSO control.

For `Br.NC1CCc2cc(O)c(O)cc2C1` (stereo not drawn) [6,7-ADTN•HBr, 6,7-ADTN], the “αSMA intensity (% of DMSO control) IPF-4” value is recorded as 4.888 % of DMSO control.

Consider `Br.CCCN1CCc2cc(O)cc3c2[C@H]1Cc1ccc(O)c(O)c1-3` [R(−)-2,10,11-Trihydroxy-N-propyl-noraporphine], for which the “αSMA intensity (% of DMSO control) IPF-4” value is 25.61 % of DMSO control.
